Experimental data as given in patent publication US8344008B2 (Janssen Pharmaceutica NV, priority 2007, dated 2013).
Structures can show the parent of a compound that is named as a salt.

molecular target: T1, recombinant human LTA4 hydrolase (rhLTA4H) (Homo sapiens, UniProt P09960); assay: Recombinant Human LTA4 Hydrolase Assay for LTA4 Hydrolase Inhibitor Activity; assay type: biochemical; conditions: average of results obtained; LTB4 quantified by enzyme-linked immunoassay
T1 construct: made in house; host or cells: Spodoptera frugiperda (Sf-9) cells, baculovirus (pFastBac1)
T1 sequence (P09960 1-611): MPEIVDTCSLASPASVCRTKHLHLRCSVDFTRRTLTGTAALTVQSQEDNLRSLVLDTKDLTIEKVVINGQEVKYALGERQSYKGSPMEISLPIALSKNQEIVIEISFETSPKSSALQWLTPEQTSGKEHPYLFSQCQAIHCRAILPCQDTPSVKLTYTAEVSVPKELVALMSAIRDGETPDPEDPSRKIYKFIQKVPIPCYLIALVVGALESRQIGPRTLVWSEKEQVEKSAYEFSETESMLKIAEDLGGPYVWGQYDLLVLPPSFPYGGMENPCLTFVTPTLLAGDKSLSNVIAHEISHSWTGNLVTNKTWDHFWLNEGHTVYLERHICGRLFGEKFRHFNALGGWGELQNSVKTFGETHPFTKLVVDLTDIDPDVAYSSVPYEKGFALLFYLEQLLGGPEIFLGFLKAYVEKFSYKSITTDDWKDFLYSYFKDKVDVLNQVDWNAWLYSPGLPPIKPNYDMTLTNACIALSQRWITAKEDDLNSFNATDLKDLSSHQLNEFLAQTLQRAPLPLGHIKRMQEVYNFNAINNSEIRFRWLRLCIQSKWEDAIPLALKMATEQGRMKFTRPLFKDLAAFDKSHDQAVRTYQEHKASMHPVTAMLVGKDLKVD
Outline: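 Baculovirus/Sf-9-expressed human LTA4 hydrolase (36 ng) preincubated with compound 10 min at rt in 0.1 M potassium phosphate pH 7.4, 5 mg/mL fatty-acid-free BSA. Reaction started with 9 ng LTA4 free acid, run 10 min at rt; LTB4 measured by enzyme immunoassay, IC50 from 4-parameter fit.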

Compound	Ki [nM]
O=C(c1ccc[nH]1)N1C[C@@H]2C[C@H]1CN2Cc1ccc(Oc2nc3ccccc3s2)cc1 [Example 62, (S,S)-{5-[4-(Benzothiazol-2-yloxy)-benzyl]-2,5-diaza-bicyclo[2.2.1]hept-2-yl}-(1H-pyrrol-2-yl)-methanone]	36
CC(C)(C)OC(=O)N1CC(C(=O)N2C[C@@H]3C[C@H]2CN3Cc2ccc(Oc3nc4ccccc4s3)cc2)C1 [Example 64, (S,S)-3-{5-[4-(Benzothiazol-2-yloxy)-benzyl]-2,5-diaza-bicyclo[2.2.1]heptane-2-carbonyl}-azetidine-1-carboxylic acid tert-butyl ester]	58
O=C(c1ccc[nH]1)N1C[C@@H]2C[C@H]1CN2CCOc1ccc(Oc2nc3ccccc3s2)cc1 [Example 65, (S,S)-(5-{2-[4-(Benzothiazol-2-yloxy)-phenoxy]-ethyl}-2,5-diaza-bicyclo[2.2.1]hept-2-yl)-(1H-pyrrol-2-yl)-methanone]	64
CC(C)(C)OC(=O)NC1(C(=O)N2C[C@@H]3C[C@H]2CN3CCOc2ccc(Oc3nc4ccccc4s3)cc2)CC1 [Example 66, (S,S)-[1-(5-{2-[4-(Benzothiazol-2-yloxy)-phenoxy]-ethyl}-2,5-diaza-bicyclo[2.2.1]heptane-2-carbonyl)-cyclopropyl]-carbamic acid tert-butyl ester]	191
CC(C)(C)OC(=O)N1CC(C(=O)N2C[C@@H]3C[C@H]2CN3CCOc2ccc(Oc3nc4ccccc4s3)cc2)C1 [Example 67, (S,S)-3-(5-{2-[4-(Benzothiazol-2-yloxy)-phenoxy]-ethyl}-2,5-diaza-bicyclo[2.2.1]heptane-2-carbonyl)-azetidine-1-carboxylic acid tert-butyl ester]	201
c1cc(CN2C[C@@H]3C[C@H]2CN3)cc(Oc2nc3ccccc3s2)c1 [Example 69, (S,S)-2-[3-(2,5-Diaza-bicyclo[2.2.1]hept-2-ylmethyl)-phenoxy]-benzothiazole hydrochloride]	450
CC(=O)N[C@H]1C[C@H]2CC[C@@H](C1)N2Cc1ccc(Oc2nc3c(C)cccc3s2)cc1 [Example 72, meso-endo-N-{8-[4-(4-Methyl-benzothiazol-2-yloxy)-benzyl]-8-aza-bicyclo[3.2.1]oct-3-yl}-acetamide]	98
CC(=O)N1[C@@H]2CC[C@H]1C[C@@H](N(C)Cc1ccc(Oc3nc4ccccc4s3)cc1)C2 [Example 74, meso-endo-1-(3-{[4-(Benzothiazol-2-yloxy)-benzyl]-methyl-amino}-8-aza-bicyclo[3.2.1]oct-8-yl)-ethanone]	240
CN(Cc1ccc(Oc2nc3ccccc3s2)cc1)[C@H]1C[C@H]2CC[C@@H](C1)N2C(N)=O [Example 75, meso-endo-3-{[4-(Benzothiazol-2-yloxy)-benzyl]-methyl-amino}-8-aza-bicyclo[3.2.1]octane-8-carboxylic acid amide]	95
NC(=O)N1CC2CCC(C1)N2Cc1ccc(Oc2nc3ccccc3s2)cc1F [Example 76, meso-8-[4-(Benzothiazol-2-yloxy)-2-fluoro-benzyl]-3,8-diaza-bicyclo[3.2.1]octane-3-carboxylic acid amide]	195
O=C(CO)N1C[C@@H]2C[C@H]1CN2Cc1ccc(Oc2nc3ccccc3s2)cc1F [Example 78, (S,S)-1-{5-[4-(Benzothiazol-2-yloxy)-2-fluoro-benzyl]-2,5-diaza-bicyclo[2.2.1]hept-2-yl}-2-hydroxy-ethanone]	39
CC(=O)N1C[C@@H]2C[C@H]1CN2Cc1ccc(Oc2nc3ccccc3s2)cc1F [Example 79, (S,S)-1-{5-[4-(Benzothiazol-2-yloxy)-2-fluoro-benzyl]-2,5-diaza-bicyclo[2.2.1]hept-2-yl}-ethanone]	59
NC(=O)N1C[C@@H]2C[C@H]1CN2Cc1ccc(Oc2nc3ccccc3s2)cc1F [Example 80, (S,S)-5-[4-(Benzothiazol-2-yloxy)-2-fluoro-benzyl]-2,5-diaza-bicyclo[2.2.1]heptane-2-carboxylic acid amide]	60
c1ccc2sc(Oc3ccc(CN4CC5CCNC5C4)cc3)nc2c1 (centres unmarked) [Example 81, 2-[4-(Hexahydro-pyrrolo[3,4-b]pyrrol-5-ylmethyl)-phenoxy]-benzothiazole hydrochloride]	162
c1ccc2sc(Oc3ccc(CN4CCC5CNCC54)cc3)nc2c1 (centres unmarked) [Example 82, 2-[4-(Hexahydro-pyrrolo[3,4-b]pyrrol-1-ylmethyl)-phenoxy]-benzothiazole hydrochloride]	97
c1ccc2sc(Oc3ccc(CN4CC5CNCC5C4)cc3)nc2c1 (centres unmarked) [Example 83, 2-[4-(Hexahydro-pyrrolo[3,4-c]pyrrol-2-ylmethyl)-phenoxy]-benzothiazole hydrochloride]	55
c1ccc2sc(Oc3ccc(CN4CCC5CNCC5C4)cc3)nc2c1 (centres unmarked) [Example 85, 2-[4-(Octahydro-pyrrolo[3,4-c]pyridin-5-ylmethyl)-phenoxy]-benzothiazole hydrochloride]	450
CC(=O)N1CC2CCN(Cc3ccc(Oc4nc5ccccc5s4)cc3)C2C1 (centres unmarked) [Example 86, 1-{1-[4-(Benzothiazol-2-yloxy)-benzyl]-hexahydro-pyrrolo[3,4-b]pyrrol-5-yl}-ethanone]	55
CC(=O)N1CCC2CN(Cc3ccc(Oc4nc5ccccc5s4)cc3)CC21 (centres unmarked) [Example 87, 1-{5-[4-(Benzothiazol-2-yloxy)-benzyl]-hexahydro-pyrrolo[3,4-b]pyrrol-1-yl}-ethanone]	36
CC(=O)NC1[C@H]2CN(Cc3ccc(Oc4nc5ccccc5s4)cc3)C[C@@H]12 (stereo partly drawn) [Example 93, (R,S)—N-{3-[4-(Benzothiazol-2-yloxy)-benzyl]-3-aza-bicyclo[3.1.0]hex-6-yl}-acetamide]	34
NCC(=O)N1CCC2CN(Cc3ccc(Oc4nc5ccccc5s4)cc3)CC21 (centres unmarked) [Example 95, 2-Amino-1-{5-[4-(benzothiazol-2-yloxy)-benzyl]-hexahydro-pyrrolo[3,4-b]pyrrol-1-yl}-ethanone]	36

Compounds with a lower Ki, results first:

Ki [nM]	Compound
33	CC(=O)N[C@H]1C[C@H]2CC[C@@H](C1)N2Cc1ccc(Oc2nc3ccc(C)cc3s2)cc1 [Example 73, meso-endo-N-{8-[4-(6-Methyl-benzothiazol-2-yloxy)-benzyl]-8-aza-bicyclo[3.2.1]oct-3-yl}-acetamide]
26	NCC(=O)N1CC2CCN(Cc3ccc(Oc4nc5ccccc5s4)cc3)C2C1 (centres unmarked) [Example 96, 2-Amino-1-{1-[4-(benzothiazol-2-yloxy)-benzyl]-hexahydro-pyrrolo[3,4-b]pyrrol-5-yl}-ethanone]
25	CC(=O)N[C@H]1C[C@H]2CC[C@@H](C1)N2Cc1ccc(Oc2nc3c(Cl)cccc3s2)cc1 [Example 71, meso-endo-N-{8-[4-(4-Chloro-benzothiazol-2-yloxy)-benzyl]-8-aza-bicyclo[3.2.1]oct-3-yl}-acetamide]
21	CC(C)(C)OC(=O)NC1(C(=O)N2C[C@@H]3C[C@H]2CN3Cc2ccc(Oc3nc4ccccc4s3)cc2)CC1 [Example 63, (S,S)-(1-{5-[4-(Benzothiazol-2-yloxy)-benzyl]-2,5-diaza-bicyclo[2.2.1]heptane-2-carbonyl}-cyclopropyl)-carbamic acid tert-butyl ester]
21	CC(=O)N1CC2CCN(Cc3ccc(Oc4nc5ccccc5s4)cc3)CC2C1 (centres unmarked) [Example 90, 1-{5-[4-(Benzothiazol-2-yloxy)-benzyl]-octahydro-pyrrolo[3,4-c]pyridin-2-yl}-ethanone]
12	CC(=O)N1CC2CCC(C1)N2Cc1ccc(Oc2nc3ccccc3s2)cc1F [Example 77, meso-1-{8-[4-(Benzothiazol-2-yloxy)-2-fluoro-benzyl]-3,8-diaza-bicyclo[3.2.1]oct-3-yl}-ethanone]
12	CC(=O)N1CC2CN(CCOc3ccc(Oc4nc5ccccc5s4)cc3)CC2C1 (centres unmarked) [Example 94, 1-(5-{2-[4-(Benzothiazol-2-yloxy)-phenoxy]-ethyl}-hexahydro-pyrrolo[3,4-c]pyrrol-2-yl)-ethanone]
6	CC(=O)N1CCC2CN(Cc3ccc(Oc4nc5ccccc5s4)cc3)CC2C1 (centres unmarked) [Example 89, 1-{2-[4-(Benzothiazol-2-yloxy)-benzyl]-octahydro-pyrrolo[3,4-c]pyridin-5-yl}-ethanone]
4	CC(=O)N(C)[C@H]1C[C@H]2CC[C@@H](C1)N2Cc1ccc(Oc2nc3ccccc3s2)cc1 [Example 70, meso-endo-N-{8-[4-(Benzothiazol-2-yloxy)-benzyl]-8-aza-bicyclo[3.2.1]oct-3-yl}-N-methyl-acetamide]
3	CC(=O)N1CC2CN(Cc3ccc(Oc4nc5ccccc5s4)cc3)CC2C1 (centres unmarked) [Example 88, 1-{5-[4-(Benzothiazol-2-yloxy)-benzyl]-hexahydro-pyrrolo[3,4-c]pyrrol-2-yl}-ethanone]
2	CC(=O)N[C@H]1C[C@H]2CC[C@@H](C1)N2Cc1ccc(Oc2nc3c(F)cccc3s2)cc1 [Example 68, meso-endo-N-{8-[4-(4-Fluoro-benzothiazol-2-yloxy)-benzyl]-8-aza-bicyclo[3.2.1]oct-3-yl}-acetamide]
